The results in this text go back to patent publication US6784201B2, “Benzothiepines having activity as inhibitors of ileal bile acid transport and taurocholate uptake” (G.D. Searle & Company, priority 1994, dated 2004).

Assay [1] deals with Fecal Bile Acid. Kind of assay: Fecal bile acid concentration (FBA), cholesterol-fed hamsters. The class given is in vivo, hamster. Particulars: 0.2% Cpd. No. 25, mean (SEM). The protocol: (§1) Measurement of Fecal Bile Acid Concentration (FBA)
(§2) Total fecal output from individually housed hamsters was collected for 24 or 48 hours, dried under a stream of nitrogen, pulverized and weighed. Approximately 0.1 gram was weighed out and extracted into an organic solvent (butanol/water). Following separation and drying, the residue was dissolved in methanol and the amount of bile acid present was measured enzymatically using the 3α-hydroxysteroid steroid dehydrogenase reaction with bile acids to reduce NAD. (Reference: Mashige, F., et al. (1981) Clin. Chem. 27, 1352).

Another assay relates to Hepatic Cholesterol. As to the kind of experiment: Hepatic cholesterol concentration, rat Alzet minipump model. The assay is classed as in vivo. Particulars: 20 MPL/DAY, mean (SEM). On the procedure: Measurement of Hepatic Cholesterol Concentration (Hepatic CHOL)
Liver tissue was weighed and homogenized in chloroform:methanol (2:1). After homogenization and centrifugation the supernatant was separated and dried under nitrogen. The residue was dissolved in isopropanol and the cholesterol content was measured enzymatically, using a combination of cholesterol oxidase and peroxidase, as described by Allain, C. A., et al. (1974) Clin. Chem. 20, 470.

For assay [2], the system named is Fecal Bile Acid. Kind of assay: Fecal bile acid concentration (FBA), rat Alzet minipump model. The assay is classed as in vivo. Particulars: 20 MPL/DAY, mean (SEM). On the procedure: as §1, §2

Take `CCCC[C@]1(CC)CS(=O)(=O)c2cc(OC)ccc2[C@@H](c2ccccc2)[C@H]1O` [Example 25, (3α,4β,5β) 3-Butyl-3-ethyl-4-hydroxy-8-methoxy-5-phenyl-2,3,4,5-tetrahydrobenzothiepine-1,1-dioxide]: the “FBA (mM/24 H/100 g)” value in the assay with Fecal Bile Acid [1] is listed as 11.9 (0.5) mM/24 H/100 g; in the assay on Fecal Bile Acid [2], 39.1 (4.5) *A, B mM/24 H/100 g. Moreover, the “HEPATIC CHOL (mg/g)” value in the assay with Hepatic Cholesterol is recorded as 2.0 (0.03) mg/g.
